Patent publication US6331555A, “Treatment of platelet derived growth factor related disorders such as cancers” (priority 1999, dated 2001)
Where two headings read alike, the source gives them in different places.

What was measured:
HER2 = assay: Receptor tyrosine kinase inhibition, HER2; format: cell-based; settings: for IC50: read-out: HER2 IC50
Description: For western blotting, cells were plated in 2 mL growth medium into 6-well dishes (500,000 cells per well) and allowed to attach overnight. The medium was replaced with 2 mL MCDB 105 (UCSF Cell Culture Facility) supplemented with 1% FBS. The plates were then incubated overnight at 37° C., ambient CO2. […] After a 7 min incubation at room temperature with ligand, the plates were put on ice and washed three times with 1 mL ice-cold PBS plus 1 mM orthovanadate. Lysis was achieved by pipetting cells in 0.5 mL of buffer containing 50 mM Tris, pH 7.4, 10% glycerol, 1% NP-40, 2 mM EDTA, 1 mM sodium vanadate (Na3 VO4), 10 mM pyrophosphate, 1 mM PMSF, […]. A 300 μL aliquot of each lysate was immediately added to 100 μL 4×Laemmli sample buffer ([…] Tris pH 6.9, 20% glycerol, 7% SDS, 5 mM EDTA, 5% β-mercaptoethanol) containing phosphatase inhibitors, 2 mM Na3 VO4 and 10 mM pyrophosphate. Samples were boiled for 5 min, frozen in dry ice-ethanol, and stored at -80° C. Proteins were resolved by SDS-PAGE (Bio-Rad Miniprotean II) and transferred to nitrocellulose membrane (Schleicher & Schuell) at 120 volts for 1 hr at room temperature in buffer containing 25 mM Tris pH 8.3, 20% methanol, 0.2 M glycine, 0.1% SDS. The integrity of the protein-to-membrane transfer was determined by staining with 1% Ponceau S in 5% acetic acid for 5 min. After destaining in several distilled water rinses, the membrane was soaked overnight in blocking buffer containing 5% milk in Tris-buffered saline, 0.05% Tween 20. Phosphotyresine was detected by incubating the membrane (1 hr at room temperature) with an anti-phosphotyosine antiserum diluted in blocking buffer at 1:3000. For C6 cells, PDGF-β receptor content in the lysates was confirmed in duplicate sample lanes by western blotting using an antibody specific for PDGF-β receptor (UBI). The antibodies were visualized using ECL reagent from Amersham and by exposure to Fuji RX film.
For ELISA assays, cells were grown to 80-90% confluency in growth medium and seeded in 96-well tissue culture plates in 0.5% serum at 25,000 to 30,000 cells per well. After overnight incubation in 0.5% serum-containingmedium, cells were changed to serum-free medium and treated with test compound for 2 hr in a 5% CO2, 37° C. incubator. Cells were then stimulated with ligand for 5-10 min followed by lysis with HNTG (20 mM Hepes, 150 mM NaCl, 10% glycerol, 5 mM EDTA, 5 mM Na3 VO4 0.2% Triton X-100, and 2 mM NaPyr). Cell lysates (0.5 mg/well in PBS) were transferred to ELISA plates previously coated with receptor-specific antibody and which had been blocked with 5% milk in TBST (50 mM Tris-HCl pH 7.2, 150 mM NaCl and 0.1% Triton X-100) at room temperature for 30 min. Lysates were incubated with shaking for 1 hr at room temperature. The plates were washed with TBST four times and then incubated with polyclonol anti-phosphotyrosine antibody at room temperature for 30 min. Excess anti-phosphotyrosine antibody was removed by rinsing the plate with TBST four times. Goat anti-rabbit IgG antibody was added to the ELISA plate for 30 min at room temperature followed by rinsing with TBST four more times.
The ability of different compound to inhibit different receptor tyrosine kinases was tested.

C6 cells = assay: C6 SRB growth assay; format: cell-based, rat
U1242 cells [1] = assay: Cytotoxicity in U1242 cells, MTT; format: cell-based, human; settings: for CC50: Homo sapiens, read-out: CYTOXICITY MTT U1242 LD50, heading: CYTOXICITY MTT U1242 LD50; for LD50 compared to A10: MTT or LDH
Description: (§1) The cytotoxicity of each drug was also determined. The cells were plated as described above. Following incubation with drug, cell survival was measured by an MTT assay as described by Mossman J. Immunol. Methods 65:55-63 (1983), or by measuring the amount of LDH released (Korzeniewski and Callewaert, J. Immunol. Methods 64:313 (1983); Decker and Lohmann-Matthes, J. Immunol. Methods 115:61 (1988) .

PDGFR = assay: Receptor tyrosine kinase inhibition, PDGFR; format: cell-based; settings: for IC50: W = done in Western assay, read-out: PDGFR IC50 (W)
Method in brief: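 Serum-starved cells treated with test compound for 2 hr at 37° C, then receptor phosphotyrosine measured by ELISA with anti-phosphotyrosine antibody and goat anti-rabbit IgG. Western blots used 7 min ligand stimulation at room temperature, vanadate-containing lysis and anti-phosphotyrosine immunodetection with ECL.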

U1242 cells [2] = assay: Cytotoxicity in U1242 cells, LDH; format: cell-based; settings: Homo sapiens, read-out: CYTOXICITY LDH U1242 LD50
Description: as §1

PDGF-R (U1242) = biological target: T1, PDGF-R (U1242) (Homo sapiens, UniProt P09619); assay: U1242 kinase (PDGF-R activity); format: cell-based
T1 construct: U1242 (PDGF-β receptor); host or cells: U1242 MG glioma cells
Method in brief: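 For ELISA, cells were held overnight in 0.5% serum, then treated with compound for 2 h at 37 °C in serum-free medium. Lysate phosphotyrosine was detected with polyclonal anti-phosphotyrosine antibody. In western blots, cells were stimulated with ligand for 7 min at room temperature and probed with anti-phosphotyrosine (1:3000).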

[3] = Rattus norvegicus, C6; read-out: C6 SRB IC50
[4] = W = done in Western assay, read-out: U1242 KINASE IC50 (W)
[5] = heading: CYTOXICITY LDH U1242 LD50

T1 sequence (P09619 33-1106): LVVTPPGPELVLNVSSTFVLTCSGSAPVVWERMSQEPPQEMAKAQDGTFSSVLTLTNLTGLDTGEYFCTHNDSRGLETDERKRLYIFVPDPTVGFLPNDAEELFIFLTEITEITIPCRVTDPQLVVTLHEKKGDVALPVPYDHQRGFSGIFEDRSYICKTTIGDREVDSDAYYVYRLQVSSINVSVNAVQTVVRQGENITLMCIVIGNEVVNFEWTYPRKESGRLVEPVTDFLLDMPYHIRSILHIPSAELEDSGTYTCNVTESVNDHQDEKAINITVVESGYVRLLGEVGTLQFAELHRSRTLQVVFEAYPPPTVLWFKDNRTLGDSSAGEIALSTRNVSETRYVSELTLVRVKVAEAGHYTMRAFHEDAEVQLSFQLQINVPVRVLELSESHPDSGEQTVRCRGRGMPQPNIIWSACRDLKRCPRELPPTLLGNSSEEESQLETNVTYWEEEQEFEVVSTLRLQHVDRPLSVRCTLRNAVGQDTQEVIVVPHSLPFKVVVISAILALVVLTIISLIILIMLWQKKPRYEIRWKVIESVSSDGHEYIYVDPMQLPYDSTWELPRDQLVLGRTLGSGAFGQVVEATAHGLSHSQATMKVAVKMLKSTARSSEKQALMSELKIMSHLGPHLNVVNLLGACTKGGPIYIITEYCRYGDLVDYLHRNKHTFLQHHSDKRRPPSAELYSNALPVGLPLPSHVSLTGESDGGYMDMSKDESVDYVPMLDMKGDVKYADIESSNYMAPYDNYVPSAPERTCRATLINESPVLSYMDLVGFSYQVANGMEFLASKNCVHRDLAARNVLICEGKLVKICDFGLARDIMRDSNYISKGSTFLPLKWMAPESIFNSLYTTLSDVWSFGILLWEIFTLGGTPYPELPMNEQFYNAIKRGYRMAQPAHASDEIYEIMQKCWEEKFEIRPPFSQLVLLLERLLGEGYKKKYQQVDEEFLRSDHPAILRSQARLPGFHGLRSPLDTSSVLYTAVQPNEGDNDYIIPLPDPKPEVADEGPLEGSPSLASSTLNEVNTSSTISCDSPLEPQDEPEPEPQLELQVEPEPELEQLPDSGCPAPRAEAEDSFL

SMILES | HER2 phosphorylation (HER2) | CC50 (U1242 cells [1]) [µM] | IC50 (PDGFR) [µM] | CC50 (U1242 cells [2]) [µM] | PDGF-R phosphorylation (PDGFR) | IC50 (HER2) [µM] | IC50 (C6 cells; [3]) [µM] | IC50 (PDGF-R (U1242); [4]) [µM] | also measured
Cc1oncc1C(=O)Nc1ccc(C(F)(F)F)cc1 [Compound A10, 5-methylisoxazole-4 carboxylic acid-(4-trifluromethyl)-anilide] | little if any effect on EGF-receptor or HER2 phosphorylation |  |  |  |  |  |  |  | IC50 (C6 cells; Rattus norvegicus, C6; PDGF-R expression ++; read-out: SRB): 0.3 µM
N#CC(=Cc1c[nH]c2ccccc12)C(N)=S [Compound D11] |  | 90 | 8 |  |  |  |  |  | 
N#CC(=Cc1c[nH]c2ccccc12)c1[nH]nc(N)c1C#N [Compound D14] | do not effect EGF or HER2 phosphorylation |  |  | > 100 | inhibit PDGF-R phosphorylation | > 50 |  |  | 
CN(C)CCCn1cc(C=C(C#N)c2[nH]nc(N)c2C#N)c2ccccc21 [Compound D15] |  | 80 | 19 |  |  |  |  |  | 
O=c1c2ccccc2nc(C=Cc2ccc(O)c(O)c2)n1CCO [Compound F10] |  |  | 5 |  |  |  | > 12.5 | 45 | 
Cc1cc2ncc(-c3ccccc3)nc2cc1C [Compound G13] | do not effect EGF or HER2 phosphorylation | 100 |  |  | inhibit PDGF-R phosphorylation | > 50 |  |  | CC50 (U1242 cells [2]; [5]): > 100 µM; LD50 compared to A10 (U1242 cells [1]): LD50 less than A10; IC50 (C6 cells; Rattus norvegicus, C6, read-out: C6 SRB IC50): > 50 µM
COc1cc2ncc(-c3ccccc3)nc2cc1OC [Compound G14] | do not effect EGF or HER2 phosphorylation |  | 0.8 |  | inhibit PDGF-R phosphorylation |  | > 50 | 0.8 | CC50 (U1242 cells [2]; [5]): > 100 µM; LD50 compared to A10 (U1242 cells [1]): LD50 less than A10
Cc1cc2nc(-c3ccccc3)c(=O)[nH]c2cc1C [Compound G18] |  |  | 10 | > 100 |  |  |  |  | 
c1ccc(-c2cnc3cc4ccccc4cc3n2)cc1 [Compound G22] |  |  |  | > 100 |  | > 50 | > 6 | 0.9 | IC50 (PDGF-R (U1242); read-out: U1242 KINASE IC50): 14 µM
